The results in this text go back to US9925263B2, “Liquid pharmaceutical formulations for injection comprising procaine and uses thereof” (EAGLE BIOLOGICS, INC., priority 2013, dated 2018).

Counter-ions that a name gives are not always drawn.

The test system of one data set is biosimilar AVASTIN®. Description: Viscosity of aqueous solutions of biosimilar AVASTIN® with viscosity-lowering agents. It is filed as physicochemical. As for the experimental part:
(§1) (unless otherwise indicated).
The protein was formulated to contain either 0.25 M phosphate buffer or 0.25 M CSAL.
Subsequently, the appropriate amount of viscosity-lowering agent was added to result in a final viscosity-lowering agent concentration of 0.15-0.35 M upon reconstitution.
The viscosity-lowering agent(s) were added in an amount sufficient to give concentration upon reconstitution as specified below. In cases of combinations of agents, the concentration of each component is 0.15 M. The protein solutions were then freeze-dried.

A further data set has as its system HERCEPTIN®. As to the kind of experiment: Viscosity of aqueous solutions of HERCEPTIN® with viscosity-lowering agents. It is filed as physicochemical. Particulars: […] agent, 25° C.
The next data set concerns TYSABRI®. As to the kind of experiment: Viscosity of aqueous solutions of TYSABRI® with viscosity-lowering agents. It is filed as physicochemical. Particulars: […] agent, 25° C.
The next data set has as its system biosimilar ERBITUX®. As to the kind of experiment: Viscosity of aqueous solutions of biosimilar ERBITUX® with viscosity-lowering agents. Particulars: 25° C.
In a further data set the test system is biosimilar RITUXAN®. Description: Viscosity of aqueous solutions of biosimilar RITUXAN® with viscosity-lowering agents.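 Note: absolute viscosity of aqueous antibody solutions determined by microfluidic viscometry (mVROC chip, 50 micron channel) at several flow rates after 5 min equilibration, mean of at least three readings.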 Particulars: 25° C.
A further data set concerns REMICADE®. As to the kind of experiment: Viscosity of aqueous solutions of […]® with viscosity-lowering agents. It is filed as physicochemical. Particulars: for Viscosity: 25° C. On the procedure:
as §1
An extrapolated zero-shear viscosity was determined from a plot of absolute viscosity versus shear rate.
Following reconstitution, the viscosity of each solution was measured using the microfluidic viscometer as described in previous examples. The solutions were then back-loaded into 1 mL BD insulin syringes with 27, 29, or 31 gauge fixed needles. The force required to extrude the concentrated […]® solutions was then measured using an Instron at a rate of displacement equivalent to a fluid flow rate of 3 mL/min. The expelled solution was collected from the syringe and analyzed by size-exclusion chromatography.

Where [1] appears, read: 202 ± 2 mg/mL RITUXAN, 0.25M agent, pH 7.0.

On to `O=C([O-])CCCC[C@@H]1SC[C@@H]2NC(=O)N[C@@H]21.[Na+]` [Biotin-Na], for which the Viscosity turned out to be 45.1 ± 0.9 cP with biosimilar AVASTIN® (189 mg/mL mAb, agent […], 25° C.); 69.9 ± 2.3 cP in the data set on HERCEPTIN® (230 mg/mL HERCEPTIN); 75.8 ± 0.4 cP with TYSABRI® (233 mg/mL TYSABRI).

As to `CC1(C)C2CCC1(CS(=O)(=O)O)C(=O)C2` (stereo not shown) [CSA sodium salt, Camphorsulfonic acid], the Viscosity in the data set on biosimilar ERBITUX® (222 ± 5 mg/mL mAb, pH 7.0, 0.25M agent) amounted to 393 ± 14 cP; in the data set on biosimilar AVASTIN® (200 ± 5 mg/mL mAb, pH 7.0, 25° C., [Salt] 0.25 M of anion, C & P viscometer) it was 55.7 ± 0.2 cP; with biosimilar RITUXAN® (setting [1]) it was 76.1 ± 1.3. The “Fold Reduction” value with biosimilar ERBITUX® (vs phosphate buffer, 222 ± 5 mg/mL mAb, pH 7.0, 0.25M agent) amounted to 2.9 fold.

`CO/N=C(\C(=O)N[C@@H]1C(=O)N2C(C(=O)O)=C(CSc3nc(=O)c(=O)[nH]n3C)CS[C@H]12)c1csc(N)n1` [Ceftriaxone sodium salt, reference compound]: the Viscosity is given as 120 ± 2 cP in the data set on biosimilar ERBITUX® (190 mg/mL mAb, […] agent); 301 ± 5 cP in the data set with biosimilar AVASTIN® (198 mg/mL mAb, agent […], 25° C.); 198 ± 17 cP in the data set on biosimilar RITUXAN® (222 mg/mL mAb, […] agent).

`CCN(CC)CCCC(C)Nc1ccnc2cc(Cl)ccc12` (stereo not shown) [Chloroquine Phosphate, reference compound]: the Viscosity in the data set on biosimilar ERBITUX® (179 mg/mL mAb, 0.10M agent) was determined as 37.4 ± 0.9 cP; in the data set on biosimilar ERBITUX® (199 mg/mL mAb, 0.10M agent) it was 54.8 ± 0.2 cP; in the data set with biosimilar AVASTIN® (200 mg/mL mAb, agent 0.10M, 25° C.), 27.9 ± 0.6 cP; with biosimilar AVASTIN® (219 mg/mL mAb, agent 0.10M, 25° C.), 58.6 ± 1.6 cP; with biosimilar AVASTIN® (228 mg/mL mAb, agent 0.10M, 25° C.), 71.8 ± 0.9 cP; in the data set with biosimilar RITUXAN® (210 mg/mL mAb, 0.10M agent), 67.1 ± 1.1 cP.

In the case of `CN/C(=N/CCSCc1nc[nH]c1C)NC#N` [Cimetidine HCl, reference compound], the Viscosity turned out to be 19.7 ± 0.2 cP in the data set on biosimilar ERBITUX® (183 mg/mL mAb, […] agent); 53.8 ± 2.4 cP in the data set on biosimilar AVASTIN® (203 mg/mL mAb, agent […], 25° C.); 49.5 ± 1.2 cP in the data set on biosimilar RITUXAN® (215 mg/mL mAb, […] agent).

Regarding `CN1C2CCCC1CC(NC(=O)c1nn(C)c3ccccc13)C2` (stereo not shown) [Granisetron HCl, reference compound], the Viscosity with biosimilar ERBITUX® (180 mg/mL mAb, […] agent) was 23.0 ± 0.2 cP; in the data set on biosimilar AVASTIN® (168 mg/mL mAb, agent […], 25° C.) it was 37.9 ± 0.6 cP; with biosimilar AVASTIN® (237 mg/mL mAb, agent […], 25° C.) it was 308 ± 34 cP; with biosimilar RITUXAN® (204 mg/mL mAb, […] agent) it was 51.2 ± 0.8 cP.

On to `CC[C@@H](C(N)=O)N1CCCC1=O` [Levetiracetam, reference compound], for which the Viscosity in the data set with biosimilar ERBITUX® (176 mg/mL mAb, […] agent) is on record as 103 ± 3 cP; with biosimilar ERBITUX® (199 mg/mL mAb, […] agent), 178 ± 2 cP; with biosimilar RITUXAN® (205 mg/mL mAb, […] agent) it was 130 ± 2 cP.

Consider `CC1(C)S[C@@H]2[C@H](NC(=O)Cc3ccccc3)C(=O)N2[C@H]1C(=O)[O-].[Na+]` [Penicillin G sodium salt, reference compound], for which the Viscosity in the data set with biosimilar ERBITUX® (178 mg/mL mAb, […] agent) amounted to 82.1 ± 3.6 cP; with biosimilar RITUXAN® (207 mg/mL mAb, […] agent), 114 ± 7 cP.

On to `CCN(CC)CCOC(=O)c1ccc(N)cc1` [Procaine HCl, reference compound], for which the Viscosity was 35.9 ± 0.3 cP in the data set with biosimilar ERBITUX® (230 mg/mL mAb, […] agent); 40.8 ± 0.9 cP with biosimilar AVASTIN® (188 mg/mL mAb, agent […], 25° C.); 65.8 ± 0.8 cP with biosimilar AVASTIN® (222 mg/mL mAb, agent […], 25° C.); 41.8 ± 0.6 cP in the data set with HERCEPTIN® (222 mg/mL HERCEPTIN); 45.1 ± 1.5 cP in the data set with TYSABRI® (228 mg/mL TYSABRI); 33.4 ± 1.2 cP in the data set on biosimilar RITUXAN® (195 mg/mL mAb, […] agent). The Viscosity with biosimilar RITUXAN® (222 mg/mL mAb, […] agent) came out at 46.2 ± 1.1 cP; in the data set with REMICADE® (174 mg/mL REMICADE, […] agent) it was 23.4 ± 0.2 cP.

As to `CN1[C@@H]2C[C@@H](OC(=O)[C@H](CO)c3ccccc3)C[C@H]1[C@@H]1O[C@@H]12` [Scopolamine HBr, reference compound], the Viscosity with biosimilar ERBITUX® (173 mg/mL mAb, […] agent) is reported as 23.4 ± 0.6 cP; in the data set on biosimilar AVASTIN® (210 mg/mL mAb, agent […], 25° C.) it was 35.3 ± 1.1 cP; in the data set with biosimilar AVASTIN® (223 mg/mL mAb, agent […], 25° C.), 64.0 ± 0.8 cP; in the data set with biosimilar AVASTIN® (238 mg/mL mAb, agent […], 25° C.), 87.8 ± 1.5 cP; in the data set on biosimilar RITUXAN® (197 mg/mL mAb, […] agent) it was 42.3 ± 1.0 cP.

CSA-Na-Creatinine: the Viscosity with biosimilar AVASTIN® (202 mg/mL mAb, agent […], 25° C.) was 38.4 ± 0.9 cP; in the data set on biosimilar RITUXAN® (190 mg/mL mAb, 0.3M agent), 33.3 ± 1.1 cP.

In the case of CSA-Na-Ornidazole, the Viscosity in the data set with HERCEPTIN® (232 mg/mL HERCEPTIN) turned out to be 60.1 ± 0.6 cP; with biosimilar RITUXAN® (188 mg/mL mAb, […] agent), 40.7 ± 0.5 cP; in the data set with biosimilar RITUXAN® (242 mg/mL mAb, […] agent), 63.0 ± 3.5 cP.

CSA-Na-aminocyclohexane carboxylic acid: the Viscosity in the data set on biosimilar AVASTIN® (225 mg/mL mAb, agent […], 25° C.) came to 69.2 ± 3.7 cP; in the data set with biosimilar RITUXAN® (191 mg/mL mAb, […] agent), 61.3 ± 2.5 cP.

Regarding CSA-Tris, the Viscosity in the data set on biosimilar AVASTIN® (197 mg/mL mAb, agent […], 25° C.) worked out at 50 ± 1 cP; in the data set on biosimilar AVASTIN® (206 mg/mL mAb, agent […], 25° C.) it was 64.4 ± 1.4 cP; in the data set with biosimilar RITUXAN® (191 mg/mL mAb, […] agent) it was 59.1 ± 0.7 cP.

Consider “Colistin sulfate salt [reference compound]”, for which the Viscosity in the data set with biosimilar ERBITUX® (203 mg/mL mAb, […] agent) was found to be 138 ± 4 cP; with biosimilar AVASTIN® (240 mg/mL mAb, agent […], 25° C.), 261 ± 58 cP; in the data set on biosimilar RITUXAN® (230 mg/mL mAb, […] agent), 228 ± 19 cP.

In the case of Ethane disulfonate-diTris-2Na, the Viscosity in the data set with biosimilar AVASTIN® (219 mg/mL mAb, […] agent, pH 7.0, 25° C., microfluidic) is listed as more than 150 cP; in the data set on biosimilar RITUXAN® (191 mg/mL mAb, […] agent) it was 80.3 ± 16.0 cP.

Take HEPES-Tris: the Viscosity with biosimilar AVASTIN® (214 mg/mL mAb, agent […], 25° C.) came out at 90.5 ± 1.8 cP; in the data set on biosimilar RITUXAN® (191 mg/mL mAb, […] agent), 50.0 ± 3.8 cP.

As to “sulfosalicylic acid di-arginine [Sulfosalicylic acid diarginine]”, the Viscosity is reported as 81.6 ± 1.7 cP in the data set with biosimilar AVASTIN® (228 ± 5 mg/mL mAb, agent […], 25° C., pH 7.0); 68.3 ± 0.8 with biosimilar RITUXAN® (220 mg/mL RITUXAN (footnote *), 0.25M agent, pH 7.0); 44.1 ± 0.1 in the data set with biosimilar RITUXAN® (setting [1]); 27.1 ± 0.3 cP with REMICADE® (166 ± 4 mg/mL REMICADE, 0.25M agent, pH 7.0); 55.9 ± 1.8 cP with REMICADE® (222 ± 6 mg/mL REMICADE, 0.25M agent, pH 7.0). Besides, in the data set on REMICADE® (0.25M agent vs PB, Table 17), the Viscosity reduction result is reported as “about 29 fold”.
